Laboratory results from US8053553B2, “Targeting host proteinases as a therapeutic strategy against viral and bacterial pathogens” (Socpra Sciences Sante Et Humaines, priority 2007, dated 2011).
Like-named read-outs stand apart in the source and are kept apart here. Non-standard residues stand in square brackets, D forms with d. Residues, ends and D or L forms follow the SMILES beside them. Nle = CCCC[C@H](N)C(=O)O; βAla = NCCC(=O)O; Sar = CNCC(=O)O

Biological target: T1, furin (Homo sapiens, UniProt P09958)
T1 construct: made in house; host or cells: Drosophila S2 cells (Invitrogen expression system)
T1 sequence (P09958 108-794 limits assumed): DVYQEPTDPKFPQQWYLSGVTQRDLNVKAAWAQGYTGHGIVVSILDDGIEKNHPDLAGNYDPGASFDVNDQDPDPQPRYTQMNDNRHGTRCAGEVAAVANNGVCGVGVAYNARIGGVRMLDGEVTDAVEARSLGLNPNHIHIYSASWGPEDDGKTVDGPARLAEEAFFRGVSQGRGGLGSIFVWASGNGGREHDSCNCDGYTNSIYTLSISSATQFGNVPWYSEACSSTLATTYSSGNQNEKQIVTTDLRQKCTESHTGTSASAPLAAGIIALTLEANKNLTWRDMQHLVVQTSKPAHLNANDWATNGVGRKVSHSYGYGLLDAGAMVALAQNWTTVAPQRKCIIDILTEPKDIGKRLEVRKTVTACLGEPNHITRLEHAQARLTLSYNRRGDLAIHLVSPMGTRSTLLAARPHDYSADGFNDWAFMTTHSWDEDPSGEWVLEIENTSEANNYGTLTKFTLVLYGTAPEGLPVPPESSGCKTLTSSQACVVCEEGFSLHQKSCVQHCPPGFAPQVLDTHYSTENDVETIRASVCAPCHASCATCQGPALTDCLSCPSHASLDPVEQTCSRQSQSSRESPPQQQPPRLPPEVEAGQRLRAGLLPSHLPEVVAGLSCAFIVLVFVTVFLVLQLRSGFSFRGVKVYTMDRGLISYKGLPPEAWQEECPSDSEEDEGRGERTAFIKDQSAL
Test: biochemical
Settings: read-out: Ki

[1] = furin, Pyr-RTKR-AMC substrate, alanine scanning mutagenesis of the H5 furin cleavage sequence (Table 2)
[2] = furin, Pyr-RTKR-AMC substrate, optimization of the inhibitory peptides (Table 3)

SMILES | Ki [1] [nM] | Ki [2] [nM] | also measured
C[C@H](N)C(=O)N[C@@H](C)C(=O)N[C@@H](CCCNC(=N)N)C(=O)N[C@@H](CCC(=O)O)C(=O)N[C@@H](CCCNC(=N)N)C(=O)N[C@@H](CCCNC(=N)N)C(=O)N[C@@H](CCCNC(=N)N)C(=O)N[C@@H](CCCCN)C(=O)N[C@@H](CCCCN)C(=O)N[C@@H](CCCNC(=N)N)C(=O)NCC(N)=O (H-AARERRRKKRG-NH2) | > 100 |  | 
C[C@H](NC(=O)[C@H](CCCCN)NC(=O)[C@H](CCCCN)NC(=O)[C@H](CCCNC(=N)N)NC(=O)[C@H](CCCNC(=N)N)NC(=O)[C@H](CCCNC(=N)N)NC(=O)[C@H](CCC(=O)O)NC(=O)[C@H](CCCNC(=N)N)NC(=O)[C@@H]1CCCN1C(=O)[C@@H](N)[C@@H](C)O)C(=O)N(C)CC(N)=O (H-TPRERRRKKA[Sar]-NH2) | > 100 |  | 
CC(C)[C@H](NC(=O)[C@H](CCCNC(=N)N)NC(=O)[C@H](C)NC(=O)[C@H](CCCCN)NC(=O)[C@H](CCCNC(=N)N)NC(=O)[C@H](CCCNC(=N)N)NC(=O)[C@H](CCCNC(=N)N)NC(=O)[C@H](CCC(=O)O)NC(=O)[C@H](CCCNC(=N)N)NC(=O)[C@@H]1CCCN1C(=O)[C@@H](N)[C@@H](C)O)C(N)=O (H-TPRERRRKARV-NH2) | > 100 |  | 
C[C@H](NC(=O)[C@H](CCCNC(=N)N)NC(=O)[C@H](CCC(N)=O)NC(=O)[C@@H]1CCCN1C(=O)[C@@H](N)[C@@H](C)O)C(=O)N[C@@H](CCCNC(=N)N)C(=O)N[C@@H](CCCNC(=N)N)C(=O)N[C@@H](CCCNC(=N)N)C(=O)N[C@@H](CCCCN)C(=O)N[C@@H](CCCCN)C(=O)N[C@@H](CCCNC(=N)N)C(=O)N[C@@H](Cc1ccccc1)C(N)=O (H-TPQRARRRKKRF-NH2) |  | 44 | 
C[C@H](NC(=O)[C@H](C)NC(=O)[C@H](CCCCN)NC(=O)[C@H](CCCNC(=N)N)NC(=O)[C@H](CCCNC(=N)N)NC(=O)[C@H](CCCNC(=N)N)NC(=O)[C@H](CCC(=O)O)NC(=O)[C@H](CCCNC(=N)N)NC(=O)[C@@H]1CCCN1C(=O)[C@@H](N)[C@@H](C)O)C(=O)NCC(N)=O (H-TPRERRRKAAG-NH2) | > 100 |  | 
C[C@H](NC(=O)[C@H](CCCNC(=N)N)NC(=O)[C@H](CCC(=O)O)NC(=O)[C@H](CCCNC(=N)N)NC(=O)[C@@H]1CCCN1C(=O)[C@@H](N)[C@@H](C)O)C(=O)N[C@@H](CCCNC(=N)N)C(=O)N[C@@H](CCCCN)C(=O)N[C@@H](CCCCN)C(=O)N[C@@H](CCCNC(=N)N)C(=O)N(C)CC(N)=O (H-TPRERARKKR[Sar]-NH2) | > 100 |  | 
C[C@@H](O)[C@H](N)C(=O)N1CCC[C@H]1C(=O)N[C@@H](CCC(N)=O)C(=O)N[C@@H](CCCNC(=N)N)C(=O)N[C@@H](Cc1ccc(O)cc1)C(=O)N[C@@H](CCCNC(=N)N)C(=O)N[C@@H](CCCNC(=N)N)C(=O)N[C@@H](CCCNC(=N)N)C(=O)N[C@@H](CCCCN)C(=O)N[C@@H](CCCCN)C(=O)N[C@@H](CCCNC(=N)N)C(=O)NCC(N)=O (H-TPQRYRRRKKRG-NH2) |  | > 100 | 
C[C@@H](O)[C@H](N)C(=O)N1CCC[C@H]1C(=O)N[C@@H](CCCNC(=N)N)C(=O)N[C@@H](CCC(=O)O)C(=O)N[C@@H](CCCNC(=N)N)C(=O)N[C@@H](CCCNC(=N)N)C(=O)N[C@@H](CCCNC(=N)N)C(=O)N[C@@H](CCCCN)C(=O)N[C@@H](CCCCN)C(=O)N[C@@H](CCCNC(=N)N)C(=O)N(C)CC(N)=O (H-TPRERRRKKR[Sar]-NH2) | > 100 |  | 
C[C@H](NC(=O)[C@H](C)NC(=O)[C@@H](N)[C@@H](C)O)C(=O)N[C@@H](CCC(=O)O)C(=O)N[C@@H](CCCNC(=N)N)C(=O)N[C@@H](CCCNC(=N)N)C(=O)N[C@@H](CCCNC(=N)N)C(=O)N[C@@H](CCCCN)C(=O)N[C@@H](CCCCN)C(=O)N[C@@H](CCCNC(=N)N)C(=O)NCC(N)=O (H-TAAERRRKKRG-NH2) | > 100 |  | 
CC(C)[C@H](NC(=O)[C@H](CCCNC(=N)N)NC(=O)[C@H](CCCCN)NC(=O)[C@H](CCCCN)NC(=O)[C@H](CCCNC(=N)N)NC(=O)[C@H](CCCNC(=N)N)NC(=O)[C@H](CCCNC(=N)N)NC(=O)[C@H](C)NC(=O)[C@H](C)NC(=O)[C@@H]1CCCN1C(=O)[C@@H](N)[C@@H](C)O)C(N)=O (H-TPAARRRKKRV-NH2) | > 100 |  | 
C[C@H](NC(=O)[C@H](C)NC(=O)[C@H](CCCNC(=N)N)NC(=O)[C@H](CCC(=O)O)NC(=O)[C@H](CCCNC(=N)N)NC(=O)[C@@H]1CCCN1C(=O)[C@@H](N)[C@@H](C)O)C(=O)N[C@@H](CCCCN)C(=O)N[C@@H](CCCCN)C(=O)N[C@@H](CCCNC(=N)N)C(=O)NCC(N)=O (H-TPRERAAKKRG-NH2) | > 100 |  | 
C[C@H](NC(=O)[C@@H]1CCCN1C(=O)[C@@H](N)[C@@H](C)O)C(=O)N[C@@H](CCC(=O)O)C(=O)N[C@@H](CCCNC(=N)N)C(=O)N[C@@H](CCCNC(=N)N)C(=O)N[C@@H](CCCNC(=N)N)C(=O)N[C@@H](CCCCN)C(=O)N[C@@H](CCCCN)C(=O)N[C@@H](CCCNC(=N)N)C(N)=O (H-TPAERRRKKR-NH2) | > 100 |  | 
C[C@H](NC(=O)[C@H](C)NC(=O)[C@@H](N)[C@@H](C)O)C(=O)N[C@@H](CCC(=O)O)C(=O)N[C@@H](CCCNC(=N)N)C(=O)N[C@@H](CCCNC(=N)N)C(=O)N[C@@H](CCCNC(=N)N)C(=O)N[C@@H](CCCCN)C(=O)N[C@@H](CCCCN)C(=O)N[C@@H](CCCNC(=N)N)C(=O)N(C)CC(N)=O (H-TAAERRRKKR[Sar]-NH2) | > 100 |  | 
CSCC[C@H](NC(=O)[C@H](CCCNC(=N)N)NC(=O)[C@H](CCC(N)=O)NC(=O)[C@@H]1CCCN1C(=O)[C@@H](N)[C@@H](C)O)C(=O)N[C@@H](CCCNC(=N)N)C(=O)N[C@@H](CCCNC(=N)N)C(=O)N[C@@H](CCCNC(=N)N)C(=O)N[C@@H](CCCCN)C(=O)N[C@@H](CCCCN)C(=O)N[C@@H](CCCNC(=N)N)C(=O)NCC(N)=O |  | > 100 | 
C[C@@H](O)[C@H](NC(=O)[C@H](CCCNC(=N)N)NC(=O)[C@H](CCCCN)NC(=O)[C@H](CCCCN)NC(=O)[C@@H](N)CCCNC(=N)N)C(N)=O [RKKRT] (H-RKKRT-NH2) |  |  | Ki (furin, Pyr-RTKR-AMC substrate, N-terminal deletions (Example 2, Table 6)): 1000 nM
C[C@H](NC(=O)[C@H](CCCNC(=N)N)NC(=O)[C@H](CCC(N)=O)NC(=O)[C@@H]1CCCN1C(=O)[C@@H](N)[C@@H](C)O)C(=O)N[C@@H](CCCNC(=N)N)C(=O)N[C@@H](CCCNC(=N)N)C(=O)N[C@@H](CCCNC(=N)N)C(=O)N[C@@H](CCCCN)C(=O)N[C@@H](CCCCN)C(=O)N[C@@H](CCCNC(=N)N)C(=O)NCC(N)=O |  | > 100 | 
C[C@H](NC(=O)[C@H](CCCNC(=N)N)NC(=O)[C@H](CCC(N)=O)NC(=O)[C@@H]1CCCN1C(=O)[C@@H](N)[C@@H](C)O)C(=O)N[C@@H](CCCNC(=N)N)C(=O)N[C@@H](CCCNC(=N)N)C(=O)N[C@@H](CCCNC(=N)N)C(=O)N[C@@H](CCCCN)C(=O)N[C@@H](CCCCN)C(=O)N[C@@H](CCCNC(=N)N)C(=O)N[C@H](CCCNC(=N)N)C(N)=O (H-TPQRARRRKKR[dR]-NH2) |  | > 100 | 
C[C@H](NC(=O)[C@H](CCCNC(=N)N)NC(=O)[C@@H]1CCCN1C(=O)[C@@H](N)[C@@H](C)O)C(=O)N[C@@H](CCCNC(=N)N)C(=O)N[C@@H](CCCNC(=N)N)C(=O)N[C@@H](CCCNC(=N)N)C(=O)N[C@@H](CCCCN)C(=O)N[C@@H](CCCCN)C(=O)N[C@@H](CCCNC(=N)N)C(=O)N[C@@H](CC(=O)O)C(N)=O |  |  | Ki: 56 nM
C[C@H](NC(=O)[C@H](CCCNC(=N)N)NC(=O)[C@H](CCC(N)=O)NC(=O)[C@@H]1CCCN1C(=O)[C@@H](N)[C@@H](C)O)C(=O)N[C@@H](CCCNC(=N)N)C(=O)N[C@@H](CCCNC(=N)N)C(=O)N[C@@H](CCCNC(=N)N)C(=O)N[C@@H](CCCCN)C(=O)N[C@@H](CCCCN)C(=O)N[C@@H](CCCNC(=N)N)C(=O)N[C@@H](Cc1ccc(O)cc1)C(N)=O (H-TPQRARRRKKRY-NH2) |  | 47 | 
CC(C)[C@H](NC(=O)[C@H](C)NC(=O)[C@H](CCCCN)NC(=O)[C@H](CCCCN)NC(=O)[C@H](CCCNC(=N)N)NC(=O)[C@H](CCCNC(=N)N)NC(=O)[C@H](CCCNC(=N)N)NC(=O)[C@H](CCC(=O)O)NC(=O)[C@H](CCCNC(=N)N)NC(=O)[C@@H]1CCCN1C(=O)[C@@H](N)[C@@H](C)O)C(N)=O (H-TPRERRRKKAV-NH2) | > 100 |  | 
C[C@H](NC(=O)[C@H](CCCNC(=N)N)NC(=O)[C@H](CCC(N)=O)NC(=O)[C@@H]1CCCN1C(=O)[C@@H](N)[C@@H](C)O)C(=O)N[C@@H](CCCNC(=N)N)C(=O)N[C@@H](CCCNC(=N)N)C(=O)N[C@@H](CCCNC(=N)N)C(=O)N[C@@H](CCCCN)C(=O)N[C@@H](CCCCN)C(=O)N[C@@H](CCCNC(=N)N)C(=O)NCCC(N)=O (H-TPQRARRRKKR[βAla]-NH2) |  | > 100 | 
C[C@H](NC(=O)[C@H](CCCNC(=N)N)NC(=O)[C@@H]1CCCN1C(=O)[C@@H](N)[C@@H](C)O)C(=O)N[C@@H](CCCNC(=N)N)C(=O)N[C@@H](CCCNC(=N)N)C(=O)N[C@@H](CCCNC(=N)N)C(=O)N[C@@H](CCCCN)C(=O)N[C@@H](CCCCN)C(=O)N[C@@H](CCCNC(=N)N)C(=O)N(C)CC(N)=O | > 100 |  | 
CC(C)[C@H](NC(=O)[C@H](CCCNC(=N)N)NC(=O)[C@H](CCCCN)NC(=O)[C@H](CCCCN)NC(=O)[C@H](CCCNC(=N)N)NC(=O)[C@H](CCCNC(=N)N)NC(=O)[C@H](CCCNC(=N)N)NC(=O)[C@H](CCC(=O)O)NC(=O)[C@H](CCCNC(=N)N)NC(=O)[C@H](C)NC(=O)[C@H](C)N)C(N)=O (H-AARERRRKKRV-NH2) | > 100 |  | 
CC(C)[C@H](NC(=O)[C@H](CCCNC(=N)N)NC(=O)[C@H](CCCCN)NC(=O)[C@H](CCCCN)NC(=O)[C@H](CCCNC(=N)N)NC(=O)[C@H](CCCNC(=N)N)NC(=O)[C@H](CCCNC(=N)N)NC(=O)[C@H](CCC(=O)O)NC(=O)[C@H](C)NC(=O)[C@H](C)NC(=O)[C@H](C)N)C(N)=O (H-AAAERRRKKRV-NH2) | > 100 |  | 
CCCC[C@H](NC(=O)[C@H](CCCNC(=N)N)NC(=O)[C@H](CCCCN)NC(=O)[C@H](CCCCN)NC(=O)[C@H](CCCNC(=N)N)NC(=O)[C@H](CCCNC(=N)N)NC(=O)[C@H](CCCNC(=N)N)NC(=O)[C@H](C)NC(=O)[C@H](CCCNC(=N)N)NC(=O)[C@H](CCC(N)=O)NC(=O)[C@@H]1CCCN1C(=O)[C@@H](N)[C@@H](C)O)C(N)=O (H-TPQRARRRKKR[Nle]-NH2) |  | > 100 | 
